Data on 11 molecules can be found in article PMC12551014 (Journal of Enzyme Inhibition and Medicinal Chemistry, 2025).

In general, IC50 refers to the point on the concentration scale where inhibition reaches its midpoint. A lower IC50 goes with greater potency. For orientation: inhibition means the change of the read-out against control, counted positive when it falls. Higher therefore signals strong suppression. As usually defined, the Cmax is the peak of the concentration-time curve. The term Tmax denotes the time from dosing to the highest level. In general, AUC refers to the area under the concentration-time curve, a measure of exposure. A low value points to low exposure.

In one data set the target is T1, human sEH (Homo sapiens, UniProt P34913).
T1 sequence (P34913 1-555): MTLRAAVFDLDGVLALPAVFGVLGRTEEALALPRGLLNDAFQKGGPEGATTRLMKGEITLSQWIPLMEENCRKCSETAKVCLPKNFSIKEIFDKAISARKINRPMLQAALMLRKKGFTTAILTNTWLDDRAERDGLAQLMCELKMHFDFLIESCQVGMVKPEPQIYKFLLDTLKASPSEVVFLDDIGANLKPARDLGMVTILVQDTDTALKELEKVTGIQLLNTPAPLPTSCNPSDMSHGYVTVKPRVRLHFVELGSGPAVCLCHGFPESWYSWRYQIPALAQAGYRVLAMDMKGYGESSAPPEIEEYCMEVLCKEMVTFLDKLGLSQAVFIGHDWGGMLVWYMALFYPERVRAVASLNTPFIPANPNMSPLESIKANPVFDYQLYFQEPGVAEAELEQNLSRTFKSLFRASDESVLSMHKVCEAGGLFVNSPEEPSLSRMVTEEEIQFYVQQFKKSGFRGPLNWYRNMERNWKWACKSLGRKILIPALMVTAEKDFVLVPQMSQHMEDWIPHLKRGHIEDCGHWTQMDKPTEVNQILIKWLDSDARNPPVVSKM
The data set can be described thus: Enzymatic sEH activity assay. Format: biochemical.

The target in another data set is T2, murine sEH (Mus musculus, UniProt P34914).
T2 sequence (P34914 1-554): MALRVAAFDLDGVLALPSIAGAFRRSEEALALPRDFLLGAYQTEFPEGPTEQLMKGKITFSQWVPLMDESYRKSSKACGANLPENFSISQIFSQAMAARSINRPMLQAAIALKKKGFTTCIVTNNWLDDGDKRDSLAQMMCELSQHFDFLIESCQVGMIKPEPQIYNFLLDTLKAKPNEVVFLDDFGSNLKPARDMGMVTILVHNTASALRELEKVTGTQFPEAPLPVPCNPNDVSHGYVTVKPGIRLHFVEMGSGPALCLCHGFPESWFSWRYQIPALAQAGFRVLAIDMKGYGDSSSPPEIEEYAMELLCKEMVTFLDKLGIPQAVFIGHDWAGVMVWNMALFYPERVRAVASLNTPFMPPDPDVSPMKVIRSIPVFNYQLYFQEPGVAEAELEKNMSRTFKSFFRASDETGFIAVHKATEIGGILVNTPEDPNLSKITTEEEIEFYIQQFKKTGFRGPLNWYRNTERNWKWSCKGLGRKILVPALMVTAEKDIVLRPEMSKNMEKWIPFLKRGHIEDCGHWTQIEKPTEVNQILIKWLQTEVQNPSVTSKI
Nature of the data set: Enzymatic sEH activity assay. Type of data set: biochemical.

Data set [1] can be described thus: Microsomal stability, human. The settings on record: after 60 min, pooled human microsomes, NADPH, 37 °C. Type of data set: in vitro ADME.
Data set [2] can be described thus: Microsomal stability, mouse. Type of data set: in vitro ADME. The note with it: after 60 min, pooled mouse microsomes, NADPH, 37 °C.
In a further data set the target is CYP2C9 (Homo sapiens, UniProt P11712). Nature of the data set: Cytochrome P450 inhibition assay, CYP2C9. Type of data set: biochemical. The note with it: probe 7-methoxy-4-(trifluoromethyl)coumarin.
The next data set has as its target CYP2D6 (Homo sapiens, UniProt P10635). Nature of the data set: Cytochrome P450 inhibition assay, CYP2D6. Format: biochemical.
In the next data set the target is CYP3A4 (Homo sapiens, UniProt P08684). Nature of the data set: Cytochrome P450 inhibition assay, CYP3A4. Format: biochemical. The settings on record: probe dibenzylfluorescein (DBF).
The next data set deals with hERG (Homo sapiens, UniProt Q12809). The data set can be described thus: hERG inhibition assay. Format: cell-based. The note with it: CHO cells transfected with hERG (CHO hERG-Duo cell line). In general terms: hERG is a cardiac potassium channel; its block is linked to QT prolongation.
Data set [3] deals with paclitaxel-induced tactile allodynia. The data set can be described thus: Paclitaxel-induced neuropathic pain, mechanical allodynia. Format: in vivo, female WT-CD1 mice.
The next data set has as its system SH-SY5Y cells. The data set can be described thus: Cytotoxicity in SH-SY5Y cells. Format: cell-based, human. The note with it: 100 µM, MTT and PI assays.
The target of data set [4] is T3, human soluble epoxide hydrolase (hsEH) (Homo sapiens, UniProt P34913).
T3 sequence (P34913 1-555): T1 sequence (P34913 1-555)
Nature of the data set: sEH immunoblotting in HEK293 cells. Format: cell-based. The settings on record: HEK293, 4 h treatment, 10-fold titration 10 nM to 10 µM. A general note: A western blot detects proteins with antibodies after separation by electrophoresis.

The nature of data set [5]: Pharmacokinetic study in plasma and brain, subcutaneous. Format: in vivo, male CD1 mice. The settings on record: for AUC: male CD1 mice, 5 mg/kg single dose s.c.
The conditions of data set [6]: predicted BBB permeation class.
[7] abbreviates: male, CD1, mouse, plasma, sc, 5 mg/kg.

CYP2C9, sequence (P11712 whole entry): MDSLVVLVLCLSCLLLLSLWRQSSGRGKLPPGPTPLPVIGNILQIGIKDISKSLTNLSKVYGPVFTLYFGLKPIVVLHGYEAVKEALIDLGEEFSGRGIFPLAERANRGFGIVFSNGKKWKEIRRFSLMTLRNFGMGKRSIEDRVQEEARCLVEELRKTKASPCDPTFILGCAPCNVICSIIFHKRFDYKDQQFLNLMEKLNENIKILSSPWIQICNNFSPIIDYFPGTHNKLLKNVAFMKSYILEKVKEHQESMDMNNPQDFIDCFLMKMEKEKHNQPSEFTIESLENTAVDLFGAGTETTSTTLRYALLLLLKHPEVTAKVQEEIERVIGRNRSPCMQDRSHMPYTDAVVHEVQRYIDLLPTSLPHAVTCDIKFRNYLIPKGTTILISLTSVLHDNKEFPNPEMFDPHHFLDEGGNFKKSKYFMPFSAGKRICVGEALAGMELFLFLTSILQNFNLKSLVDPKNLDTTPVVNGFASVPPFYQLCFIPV
CYP2D6, sequence (P10635 whole entry): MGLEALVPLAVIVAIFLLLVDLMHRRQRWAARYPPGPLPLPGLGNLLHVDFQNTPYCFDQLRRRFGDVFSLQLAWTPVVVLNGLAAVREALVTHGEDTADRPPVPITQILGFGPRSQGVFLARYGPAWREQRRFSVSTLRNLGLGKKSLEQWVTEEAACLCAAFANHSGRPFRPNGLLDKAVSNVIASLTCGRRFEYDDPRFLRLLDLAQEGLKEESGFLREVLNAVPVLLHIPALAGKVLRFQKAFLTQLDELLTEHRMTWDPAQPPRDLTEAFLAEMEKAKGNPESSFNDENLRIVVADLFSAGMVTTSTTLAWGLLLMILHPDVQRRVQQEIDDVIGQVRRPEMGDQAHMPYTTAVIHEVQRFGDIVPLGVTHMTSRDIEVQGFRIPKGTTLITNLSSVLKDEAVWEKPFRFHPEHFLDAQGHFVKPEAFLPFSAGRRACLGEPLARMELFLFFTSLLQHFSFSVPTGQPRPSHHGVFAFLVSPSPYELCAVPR
CYP3A4, sequence (P08684 whole entry): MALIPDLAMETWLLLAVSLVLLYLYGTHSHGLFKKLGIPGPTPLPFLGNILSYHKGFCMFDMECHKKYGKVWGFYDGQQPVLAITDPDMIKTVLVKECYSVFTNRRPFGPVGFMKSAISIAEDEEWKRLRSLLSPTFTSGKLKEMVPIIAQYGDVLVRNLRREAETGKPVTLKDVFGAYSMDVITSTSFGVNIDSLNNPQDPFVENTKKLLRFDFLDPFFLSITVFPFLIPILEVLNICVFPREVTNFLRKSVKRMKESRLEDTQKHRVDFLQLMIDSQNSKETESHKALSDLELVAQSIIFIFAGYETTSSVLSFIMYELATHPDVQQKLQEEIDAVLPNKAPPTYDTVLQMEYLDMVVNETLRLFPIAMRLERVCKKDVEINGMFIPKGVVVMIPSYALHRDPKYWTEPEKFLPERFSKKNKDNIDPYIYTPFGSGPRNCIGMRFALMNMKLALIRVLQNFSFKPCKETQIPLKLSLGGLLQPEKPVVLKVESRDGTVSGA
hERG, sequence (Q12809 whole entry): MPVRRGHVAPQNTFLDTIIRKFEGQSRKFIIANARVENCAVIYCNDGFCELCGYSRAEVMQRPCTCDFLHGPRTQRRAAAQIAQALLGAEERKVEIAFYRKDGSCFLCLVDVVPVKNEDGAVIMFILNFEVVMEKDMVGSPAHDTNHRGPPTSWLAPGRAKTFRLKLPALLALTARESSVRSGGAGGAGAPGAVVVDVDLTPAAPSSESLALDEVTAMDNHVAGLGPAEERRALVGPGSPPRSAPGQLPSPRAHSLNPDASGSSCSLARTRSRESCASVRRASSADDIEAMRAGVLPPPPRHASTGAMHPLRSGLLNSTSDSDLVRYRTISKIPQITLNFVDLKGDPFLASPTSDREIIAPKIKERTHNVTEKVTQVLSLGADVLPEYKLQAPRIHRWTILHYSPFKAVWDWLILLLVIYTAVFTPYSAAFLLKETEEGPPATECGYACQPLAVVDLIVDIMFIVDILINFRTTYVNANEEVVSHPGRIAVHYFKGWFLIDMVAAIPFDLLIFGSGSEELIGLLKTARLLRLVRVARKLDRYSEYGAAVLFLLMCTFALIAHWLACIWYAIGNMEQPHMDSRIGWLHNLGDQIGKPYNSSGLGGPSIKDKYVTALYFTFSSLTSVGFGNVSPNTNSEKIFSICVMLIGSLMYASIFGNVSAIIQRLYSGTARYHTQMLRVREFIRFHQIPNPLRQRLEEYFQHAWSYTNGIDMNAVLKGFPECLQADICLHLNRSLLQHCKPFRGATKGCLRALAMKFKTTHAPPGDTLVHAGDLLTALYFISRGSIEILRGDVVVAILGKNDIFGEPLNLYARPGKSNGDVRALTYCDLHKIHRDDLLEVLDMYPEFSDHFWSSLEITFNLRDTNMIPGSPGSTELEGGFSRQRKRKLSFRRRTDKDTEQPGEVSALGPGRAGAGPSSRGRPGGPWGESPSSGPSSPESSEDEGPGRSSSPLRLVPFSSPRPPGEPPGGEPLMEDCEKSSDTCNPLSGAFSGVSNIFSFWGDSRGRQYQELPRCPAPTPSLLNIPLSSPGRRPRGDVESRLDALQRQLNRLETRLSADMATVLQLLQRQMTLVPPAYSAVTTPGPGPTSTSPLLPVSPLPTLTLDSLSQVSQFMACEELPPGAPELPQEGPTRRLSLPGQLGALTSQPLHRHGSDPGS

For `COc1cc2c(cc1OC)C1CC3(C)CC2CC(NC(=O)NC2CCN(C(=O)C4CCOCC4)CC2)(C1)C3` [Compound 20, 1-(2,3-Dimethoxy-9-methyl-5,6,8,9,10,11-hexahydro-7H-5,9:7,11-dimethanobenzo[9]annulen-7-yl)-3–(1-(tetrahydro-2H-pyran-4-carbonyl)piperidin-4-yl)urea], the IC50 against human sEH came out at 0.4 nM; on murine sEH it was 1.9 nM. Moreover, the “Microsomal stability Human, percentage of remaining compound” value in data set [1] worked out at 80%. The “Microsomal stability Mouse, percentage of remaining compound” value in data set [2] is given as 96%. The inhibition at 10 µM against CYP2C9 stood at 22 ± 2%; on CYP2D6 it was 36 ± 5%; against CYP3A4, 43 ± 1%. This molecule yielded an inhibition at 30 min, 10 µM at hERG of 11 ± 2%.
`CC(=O)N1CCC(NC(=O)NC23CC4CC(C)(CC(C2)c2cc([N+](=O)[O-])ccc24)C3)CC1` (stereo not drawn) [Compound 17, 1-(1-Acetylpiperidin-4-yl)-3–(9-methyl-2-nitro-5,6,8,9,10,11-hexahydro-7H-5,9:7,11-dimethanobenzo[9]annulen-7-yl)urea]: the IC50 at human sEH and against murine sEH was 4.5 nM throughout. Besides, in [1], the “Microsomal stability Human, percentage of remaining compound” value is listed as 100%. The “Microsomal stability Mouse, percentage of remaining compound” value in [2] is listed as 27%. Besides, the inhibition at 10 µM amounted to 20 ± 4% on CYP2C9, 8 ± 3% against CYP2D6 and 10 ± 1% against CYP3A4.
As for `CC(=O)c1ccc2c(c1)C1CC3(C)CC2CC(NC(=O)NC2CCN(C(C)=O)CC2)(C1)C3` (stereo not drawn) [Compound 16, 1-(2-Acetyl-9-methyl-5,6,8,9,10,11-hexahydro-7H-5,9:7,11-dimethanobenzo[9]annulen-7-yl)-3–(1-acetylpiperidin-4-yl)urea], the IC50 against human sEH stood at 4.1 nM; on murine sEH, 6.7 nM. For the same molecule, in data set [1], the “Microsomal stability Human, percentage of remaining compound” value is given as 92%. Also, the “Microsomal stability Mouse, percentage of remaining compound” value in data set [2] is on record as 70%. For the same molecule, the inhibition at 10 µM at CYP2C9 was 9 ± 3%; against CYP2D6 it was 7 ± 2%; against CYP3A4, 3 ± 2%.
On to `NCC1(CC(=O)O)CCCCC1` [gabapentin, reference compound], for which the “Dose achieving full / maximum antiallodynic effect” value in data set [3] (s.c., paclitaxel-treated mice) stood at 20 mg/kg.
As for `C#CCOc1ccccc1CCCCCC(=O)NS(C)(=O)=O` [MS-PPOH, N-methanesulfonyl-6–(2-proparyloxyphenyl)hexanamide, reference compound], the “Effect on paclitaxel-induced tactile allodynia (alone)” value in data set [3] (20 mg/kg s.c., day 10 after paclitaxel) is given as “did not alter paclitaxel-induced tactile allodynia”. Moreover, in data set [3] (MS-PPOH 20 mg/kg s.c. 5 min before 21 5 mg/kg s.c., measured at 90 min), the “Effect of MS-PPOH on the antiallodynic effect of 21” value is given as “fully abolished the effect of compound 21”.
On murine sEH, `COc1ccc2c(c1)C1CC3(C)CC2CC(NC(=O)NC2CCN(C(C)=O)CC2)(C1)C3` (stereo not drawn) [Compound 15, 1-(1-Acetylpiperidin-4-yl)-3–(2-methoxy-9-methyl-5,6,8,9,10,11-hexahydro-7H-5,9:7,11-dimethanobenzo[9]annulen-7-yl)urea] registered an IC50 of 1.7 nM. Also, the “Microsomal stability Human, percentage of remaining compound” value in data set [1] worked out at 33%. Moreover, the “Microsomal stability Mouse, percentage of remaining compound” value in [2] is on record as 32%. Also, the inhibition at 10 µM against CYP2C9 came to 12 ± 3%; at CYP2D6, 8 ± 2%; on CYP3A4, 12 ± 4%.
As for `COc1cc2c(cc1OC)C1CC3(C)CC2CC(NC(=O)NC2CCN(C(C)=O)CC2)(C1)C3` [Compound 19, 1-(1-Acetylpiperidin-4-yl)-3–(2,3-dimethoxy-9-methyl-5,6,8,9,10,11-hexahydro-7H-5,9:7,11-dimethanobenzo[9]annulen-7-yl)urea], the values for the IC50 at human sEH and at murine sEH were 1.3 nM and 2.2 nM, respectively. Besides, the “Microsomal stability Human, percentage of remaining compound” value in data set [1] stood at 100%. The “Microsomal stability Mouse, percentage of remaining compound” value in data set [2] came to 70%. For the same molecule, the inhibition at 10 µM against CYP2C9 came out at 8 ± 1%; against CYP2D6, 2 ± 2%; against CYP3A4 it was 15 ± 4%.
On murine sEH, `COc1cc2c(cc1OC)C1CC3(F)CC2CC(NC(=O)NC2CCN(C(=O)C4CCOCC4)CC2)(C1)C3` [Compound 21, 1-(9-Fluoro-2,3-dimethoxy-5,6,8,9,10,11-hexahydro-7H-5,9:7,11-dimethanobenzo[9]annulen-7-yl)-3–(1-(tetrahydro-2H-pyran-4-carbonyl)piperidin-4-yl)urea] registered an IC50 of 2.9 nM. The “Microsomal stability Human, percentage of remaining compound” value in data set [1] was 100%. The “Microsomal stability Mouse, percentage of remaining compound” value in data set [2] was 86%. The inhibition at 10 µM is 8 ± 1% against CYP2C9, 15 ± 4% at CYP2D6 and 1 ± 1% on CYP3A4. In addition, the inhibition at 30 min, 10 µM at hERG amounted to 9 ± 1%. Further, the “Cytotoxicity at the highest concentration tested” value in the data set on SH-SY5Y cells is “not cytotoxic”. In data set [4], the “hsEH protein levels (degradation)” value was “No significant degradation was observed”. Further, in data set [5] (5 mg/kg s.c., multiple time points 0.08–18 h), the “Compound level in brain samples” value is listed as “undetectable in all brain samples”. This molecule showed a Cmax in [5] (setting [7]) of 1.6 µg/mL. In data set [5] (setting [7]), the Tmax came to 2 h. For the same molecule, the AUC came to 5.6 µg·h/mL in [5] (male, CD1, mouse, plasma, sc, 5 mg/kg, AUC^inf) and 5.5 µg·h/mL in data set [5] (male, CD1, mouse, plasma, sc, 5 mg/kg, AUC^last). Further, the “Prevention of development of paclitaxel-induced neuropathic pain” value in data set [3] (5 mg/kg s.c. 30 min before each paclitaxel dose, tested at 10, 14, 21 days) was “showed no signs of sensory hypersensitivity at any time point tested”. Also, in [3] (s.c., paclitaxel-treated mice), the “Dose achieving full / maximum antiallodynic effect” value was found to be 5 mg/kg. The “Time of peak / maximum antiallodynic effect after administration” value in [3] (s.c., paclitaxel-treated mice) worked out at 90 min. Moreover, the PAMPA-BBB entry in data set [6] was “CNS −”.
Consider `CC(=O)N1CCC(NC(=O)NC23CC4CC(C)(CC(C2)c2c(F)cccc24)C3)CC1` (stereo not drawn) [Compound 13, 1-(1-Acetylpiperidin-4-yl)-3–(1-fluoro-9-methyl-5,6,8,9,10,11-hexahydro-7H-5,9:7,11-dimethanobenzo[9]annulen-7-yl)urea], for which it took 0.8 nM to reach half-maximal inhibition at murine sEH (IC50). For the same molecule, the “Microsomal stability Human, percentage of remaining compound” value in data set [1] turned out to be 16%. Also, the “Microsomal stability Mouse, percentage of remaining compound” value in data set [2] was determined as 1%. Further, the inhibition at 10 µM on CYP2C9 was found to be 6 ± 3%; against CYP2D6, 1 ± 2%; against CYP3A4, 9 ± 3%. Further, the PAMPA-BBB entry in [6] is listed as “CNS +”.
Take `CC(=O)N1CCC(NC(=O)NC23CC4CC(C)(CC(C2)c2cc(N)ccc24)C3)CC1` (stereo not drawn) [Compound 18, 1-(1-Acetylpiperidin-4-yl)-3–(2-amino-9-methyl-5,6,8,9,10,11-hexahydro-7H-5,9:7,11-dimethanobenzo[9]annulen-7-yl)urea]: the IC50 against human sEH stood at 25 nM; against murine sEH it was 17.1 nM.
For `CC(=O)N1CCC(NC(=O)NC23CC4CC(C)(CC(C2)c2cc(F)ccc24)C3)CC1` (stereo not drawn) [Compound 14, 1-(1-Acetylpiperidin-4-yl)-3–(2-fluoro-9-methyl-5,6,8,9,10,11-hexahydro-7H-5,9:7,11-dimethanobenzo[9]annulen-7-yl)urea], the IC50 against murine sEH was determined as 0.6 nM. The “Microsomal stability Human, percentage of remaining compound” value in data set [1] came to 22%. Further, in data set [2], the “Microsomal stability Mouse, percentage of remaining compound” value was 4%. Moreover, the inhibition at 10 µM against CYP2C9 amounted to 12 ± 2%; against CYP2D6, 5 ± 2%; against CYP3A4, 13 ± 3%. Besides, the PAMPA-BBB entry in [6] was “CNS +”.
